Laboratory results taken from ChEMBL document CHEMBL2016436, “X-ray crystallographic structure-based design of selective thienopyrazole inhibitors for interleukin-2-inducible tyrosine kinase” (Bioorg Med Chem Lett, 2012).

Legend:
[1] = target: T1, Tyrosine-protein kinase ITK/TSK (Homo sapiens, UniProt Q08881); experiment: Inhibition of recombinant N-terminus His6 tagged Itk (357-620) autophosphorylation expressed in insect Sf9 cells using [33P]ATP by scintillation counting
T1 sequence (Q08881 whole entry): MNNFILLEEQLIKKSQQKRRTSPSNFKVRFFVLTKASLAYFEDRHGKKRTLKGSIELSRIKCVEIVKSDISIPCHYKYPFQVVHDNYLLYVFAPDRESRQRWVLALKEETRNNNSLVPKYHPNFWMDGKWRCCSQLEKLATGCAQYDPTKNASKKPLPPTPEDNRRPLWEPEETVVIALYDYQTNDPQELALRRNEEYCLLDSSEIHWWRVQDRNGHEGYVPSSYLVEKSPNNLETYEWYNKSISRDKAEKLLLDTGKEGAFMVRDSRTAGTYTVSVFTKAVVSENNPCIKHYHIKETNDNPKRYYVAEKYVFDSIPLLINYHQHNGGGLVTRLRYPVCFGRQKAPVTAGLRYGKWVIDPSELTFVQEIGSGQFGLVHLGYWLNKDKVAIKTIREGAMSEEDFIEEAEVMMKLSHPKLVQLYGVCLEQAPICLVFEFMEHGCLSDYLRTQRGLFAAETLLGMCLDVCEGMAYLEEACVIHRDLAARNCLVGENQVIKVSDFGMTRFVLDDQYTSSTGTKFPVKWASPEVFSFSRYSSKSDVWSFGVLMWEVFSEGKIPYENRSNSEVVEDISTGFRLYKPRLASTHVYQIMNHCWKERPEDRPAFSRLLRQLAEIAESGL

[2] = target: Tyrosine-protein kinase Lck (Homo sapiens, UniProt P06239); experiment: Inhibition of Lck autophosphorylation using [33P]ATP by scintillation counting
[3] = target: T2, Tyrosine-protein kinase TXK (Homo sapiens, UniProt P42681); experiment: Inhibition of Txk autophosphorylation using [33P]ATP by scintillation counting
T2 sequence (P42681 whole entry): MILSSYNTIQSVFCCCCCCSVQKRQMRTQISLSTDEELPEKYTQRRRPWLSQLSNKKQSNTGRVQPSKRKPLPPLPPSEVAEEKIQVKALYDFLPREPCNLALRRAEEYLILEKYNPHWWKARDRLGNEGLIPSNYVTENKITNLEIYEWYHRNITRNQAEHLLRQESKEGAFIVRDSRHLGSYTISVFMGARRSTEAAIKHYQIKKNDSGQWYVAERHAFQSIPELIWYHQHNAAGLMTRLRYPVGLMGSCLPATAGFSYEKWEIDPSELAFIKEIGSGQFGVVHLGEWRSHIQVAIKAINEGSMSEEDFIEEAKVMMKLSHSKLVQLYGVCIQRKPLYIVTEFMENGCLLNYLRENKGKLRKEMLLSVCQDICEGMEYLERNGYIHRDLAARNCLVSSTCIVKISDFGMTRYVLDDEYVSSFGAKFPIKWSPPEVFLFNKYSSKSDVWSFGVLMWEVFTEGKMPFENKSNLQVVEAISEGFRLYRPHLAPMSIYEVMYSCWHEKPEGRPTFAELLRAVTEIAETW

[4] = target: Tyrosine-protein kinase SYK (Homo sapiens, UniProt P43405); experiment: Inhibition of recombinant N-terminus His6 tagged Syk (343 to 635) autophosphorylation expressed in insect Sf9 cells using [33P]ATP by scintillation counting

Chain of Tyrosine-protein kinase Lck (P06239 whole entry): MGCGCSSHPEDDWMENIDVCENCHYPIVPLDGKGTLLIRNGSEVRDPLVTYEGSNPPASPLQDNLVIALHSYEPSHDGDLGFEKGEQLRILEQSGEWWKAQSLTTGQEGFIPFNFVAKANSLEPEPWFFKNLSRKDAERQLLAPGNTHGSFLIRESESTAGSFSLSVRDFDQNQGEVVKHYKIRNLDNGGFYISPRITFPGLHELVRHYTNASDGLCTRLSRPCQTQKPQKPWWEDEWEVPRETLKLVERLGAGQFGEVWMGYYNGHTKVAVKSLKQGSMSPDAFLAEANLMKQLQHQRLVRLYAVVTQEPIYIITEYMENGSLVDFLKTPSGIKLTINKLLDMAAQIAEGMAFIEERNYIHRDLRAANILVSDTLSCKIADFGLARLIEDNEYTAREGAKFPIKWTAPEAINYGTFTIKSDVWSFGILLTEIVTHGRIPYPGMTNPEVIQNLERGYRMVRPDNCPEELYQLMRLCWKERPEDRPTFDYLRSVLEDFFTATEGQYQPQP

| Structure (SMILES) | IC50 [1] [nM] | IC50 [2] [nM] | IC50 [3] [nM] | IC50 [4] [nM] |
| --- | --- | --- | --- | --- |
| CC(C)(O)c1ccc2cc(-c3n[nH]c4ccsc34)[nH]c2c1 | 1.9 | 63.9 | 73.8 |  |
| CCC(O)(CC)c1ccc2cc(-c3n[nH]c4ccsc34)[nH]c2c1 |  | 1100 | 66.5 | 186 |
| CCC(O)(CC)c1cc(OCCN2CCOCC2)c2cc(-c3n[nH]c4ccsc34)[nH]c2c1 |  | 162 | 55.7 | 287 |
| CCC(O)(CC)c1ccc2cc(-c3n[nH]c4cc(C(F)F)sc34)[nH]c2c1 |  | 39.2 | 77.5 |  |

The remaining lines, values ahead:

| IC50 [1] [nM] | IC50 [2] [nM] | IC50 [3] [nM] | IC50 [4] [nM] | Structure (SMILES) |
| --- | --- | --- | --- | --- |
| 200 |  |  |  | Oc1ccc2nc(-c3n[nH]c4ccccc34)[nH]c2c1 |
|  | 3180 | 241 | 939 | CCC(O)(CC)c1ccc2c(-c3ccc(OC)cc3)c(-c3n[nH]c4ccsc34)[nH]c2c1 |
|  | 203 | 441 | 2470 | CCC(O)(CC)c1ccc2cc(-c3n[nH]c4cc(-c5ccccc5)sc34)[nH]c2c1 |
